Assay results taken from publication PMC9004777, “Double drugging of prolyl-tRNA synthetase provides a new paradigm for anti-infective drug development” (PLoS Pathogens, 2022).
Where two headings read alike, the source gives them in different places.

Tests used:
HsPRS = target: T1, HsPRS (Homo sapiens, UniProt P07814); assay: malachite green aminoacylation assay, recombinant enzyme; TSA; type: biochemical
T1 construct: gene EPRS1

[1] = target: T2, Toxoplasma gondii prolyl-tRNA synthetase (TgPRS) (Toxoplasma gondii, UniProt A0A7J6JUK2); assay: co-crystal structure with L95 at […] Å; TSA; malachite green aminoacylation assay (IC50); type: biochemical
T2 construct: gene TGRH88_057780
T2 sequence (A0A7J6JUK2 215-711): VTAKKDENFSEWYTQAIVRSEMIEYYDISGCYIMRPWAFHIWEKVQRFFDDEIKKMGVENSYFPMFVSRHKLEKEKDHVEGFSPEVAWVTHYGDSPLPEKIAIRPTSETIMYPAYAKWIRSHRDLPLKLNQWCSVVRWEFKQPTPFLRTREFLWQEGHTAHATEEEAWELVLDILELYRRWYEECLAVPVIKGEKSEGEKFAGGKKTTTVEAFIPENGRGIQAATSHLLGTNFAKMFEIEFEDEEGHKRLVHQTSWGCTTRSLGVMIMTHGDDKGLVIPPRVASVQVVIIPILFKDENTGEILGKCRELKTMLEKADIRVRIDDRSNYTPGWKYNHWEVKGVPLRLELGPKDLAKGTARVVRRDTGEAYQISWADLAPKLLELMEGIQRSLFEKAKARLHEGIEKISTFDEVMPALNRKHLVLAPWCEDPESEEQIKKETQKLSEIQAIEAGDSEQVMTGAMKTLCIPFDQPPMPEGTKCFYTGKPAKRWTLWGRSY

[2] = target: T2, Toxoplasma gondii prolyl-tRNA synthetase (TgPRS); assay: co-crystal structures at […] Å (with L-pro, 7EVV; with HFG, 7EVU); TSA; malachite green aminoacylation assay (IC50); type: biochemical
[3] = target: T2, Toxoplasma gondii prolyl-tRNA synthetase (TgPRS); assay: co-crystal structure with L95 at […] Å; type: binding

T1 sequence (P07814 whole entry): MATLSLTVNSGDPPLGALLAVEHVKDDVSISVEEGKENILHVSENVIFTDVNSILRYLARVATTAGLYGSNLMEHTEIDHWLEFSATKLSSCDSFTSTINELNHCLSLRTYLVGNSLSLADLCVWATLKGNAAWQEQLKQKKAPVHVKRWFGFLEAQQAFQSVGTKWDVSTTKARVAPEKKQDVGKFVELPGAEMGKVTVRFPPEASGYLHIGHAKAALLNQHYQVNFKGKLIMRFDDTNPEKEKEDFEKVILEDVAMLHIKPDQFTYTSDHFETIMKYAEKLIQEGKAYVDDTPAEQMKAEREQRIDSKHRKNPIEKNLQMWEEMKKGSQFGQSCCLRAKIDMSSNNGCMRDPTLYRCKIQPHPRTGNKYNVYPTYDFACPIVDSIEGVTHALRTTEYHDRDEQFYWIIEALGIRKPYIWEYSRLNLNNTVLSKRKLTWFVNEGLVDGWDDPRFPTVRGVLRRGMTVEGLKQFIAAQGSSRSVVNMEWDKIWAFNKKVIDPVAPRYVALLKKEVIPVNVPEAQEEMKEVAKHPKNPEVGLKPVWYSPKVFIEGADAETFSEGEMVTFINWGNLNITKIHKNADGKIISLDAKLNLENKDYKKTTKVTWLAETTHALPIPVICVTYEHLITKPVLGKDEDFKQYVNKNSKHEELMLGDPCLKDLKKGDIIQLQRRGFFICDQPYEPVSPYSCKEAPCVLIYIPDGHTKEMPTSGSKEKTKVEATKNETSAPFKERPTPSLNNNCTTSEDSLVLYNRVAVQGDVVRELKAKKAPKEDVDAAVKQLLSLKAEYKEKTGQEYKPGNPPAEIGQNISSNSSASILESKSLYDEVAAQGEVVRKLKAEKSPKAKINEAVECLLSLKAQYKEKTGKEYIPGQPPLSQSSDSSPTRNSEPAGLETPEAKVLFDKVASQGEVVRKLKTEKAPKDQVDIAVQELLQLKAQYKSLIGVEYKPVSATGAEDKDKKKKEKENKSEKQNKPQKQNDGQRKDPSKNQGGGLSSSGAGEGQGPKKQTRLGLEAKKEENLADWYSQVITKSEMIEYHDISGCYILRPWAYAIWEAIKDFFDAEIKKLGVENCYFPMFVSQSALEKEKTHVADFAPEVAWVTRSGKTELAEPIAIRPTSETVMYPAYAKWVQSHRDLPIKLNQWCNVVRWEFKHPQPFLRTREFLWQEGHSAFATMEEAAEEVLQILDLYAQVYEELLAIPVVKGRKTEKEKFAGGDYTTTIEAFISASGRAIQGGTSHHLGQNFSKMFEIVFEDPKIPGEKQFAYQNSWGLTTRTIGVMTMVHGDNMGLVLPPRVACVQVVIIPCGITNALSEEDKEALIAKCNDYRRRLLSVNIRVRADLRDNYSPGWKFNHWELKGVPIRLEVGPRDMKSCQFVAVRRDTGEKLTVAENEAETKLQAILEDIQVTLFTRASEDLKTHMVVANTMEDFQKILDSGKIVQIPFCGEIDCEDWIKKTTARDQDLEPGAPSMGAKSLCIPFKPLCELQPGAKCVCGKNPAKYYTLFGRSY

O=C(C[C@H]1NCCC[C@@H]1O)Cn1cnc2cc(Br)c(Cl)cc2c1=O (racemic) [HFG, halofuginone]
IC50 (HsPRS; read-out: IC50): 10.7 nM
IC50 [1]: 5.41 nM

Cc1cc(N2CC[C@@](C#N)(C3CC3)C2=O)cc(NC(=O)Cc2ccccc2)n1 [L95]
IC50 [2]: 47.7 nM
IC50 (HsPRS): 47.7 nM

O=C(O)[C@@H]1CCCN1 [L-pro, L-proline]
co-crystal structure with L95 at 1.7 Å [3]: forms a salt bridge between the carboxylic group of L-pro and the guanidium group of Arg470
